Holding throughout (format): cell-based
Assay [1] deals with PLC/PRF/5 and SNU-475 cells. In words: ELISA for growth factors PDGF-AA, TGF and VEGF. The following applies: tissue culture supernatants, with or without platelets (Fig. S4B). As for the experimental part: A. The growth factors PDGF-AA, TGFβ and VEGF were determined from tissue culture supernatants by ELISA. PLC/PRF/5 and SNU-475 cells were cultured with increasing […]
(1 picture or pasted object on this page, not shown here) […]
amounts of platelets. In parallel, platelets were cultured without cells to determine if the growth factors were platelet derived.
B. ELSIAs for PDGF-AA, TGFβ and VEGF were performed after drug treatment of PC/PRF/5 and SNU-475 cells. Cells were cultured as indicated with or without platelets and treated with resminostat, sorafenib, the drug combination or vehicle control 0.1% DMSO.
Table S1_ EC50 cell line screen
S1D. The cancer cell lines, their tissue origins and the respective EC50 values are shown.
Each cell line was seeded in duplicates.
On the technique in general: An ELISA detects its analyte on a solid surface through an enzyme-linked reagent.

The subject of a further assay is CASKI. The experiment in a line: Efficacy screening assay. The following applies: 72 h, cervix. As for the experimental part: (§1) The experiment was performed by Oncolead GmbH & Co. KG (Karlsfeld , Germany), based on a standardized screening procedure . Cell lines were purchased directly from the ATCC, NCI and DSMZ cell line c ollections. Cells used for the study had undergone less than 20 passages. To ensure the absence of potential contamination and wrong assignment, all cell lines were tested using a whole genome assay (Agilent, USA). All cell lines were grown as recommended by the suppliers and with addition of 100 U/mL penicillin G and 100 µg/mL; streptomycin. Cell growth and treatments were performed in Nunclon D 96 -well plates (NUNC, Germany). The optimal seeding density for each cell line was determined to ensure exponential growth for the duration of the experiment. All cells growing without anti-cancer agents were sub-conﬂuent by the end of the treatment, as determined by visual inspection.
(§2) After an initial 24 h pre-growth period, the compounds were added. The vehicle concentration […]
(§3) was 0.1% DMSO. After incubation at 37°C for 72 h, the culture medium was aspirated, and the cells were precipitated by the addition of 10% trichloroacetic acid (Sigma-Aldrich, Missouri, US). After overnight incubation at 4°C, the plates were washed three times with deionized water. The precipitates were then stained with SRB (0.4% wt/v sulforhodamine B solution in 1% acetic acid, Sigma-Aldrich, Missouri, US). Afterwards, the plates were washed six times with 1% acetic acid to remove unbound stain. After drying the plates at room temperature, the bound SRB was solubilized with 10 mM Tris base and the optical density was measured at 520 nm using a Victor2 plate reader (Perkin Elmer, Germany). Blank OD values were subtracted from mean OD values for each concentration. The nonlinear curve ﬁtting and EC50 calculations were per formed using XLﬁt and algorithm “205” (ID Business […]
(§4) For comparison of EC50 values in Figure 1F, one-way ANOVA with multiple comparison testing (Tukey) was performed. Multiplicity adjusted p -values for the EC50 with sorafenib versus resminostat for each cell line and comparison between cell lines for sorafenib are presented (95% confidence interval for significance testing). For comparison of EC50 data in Figure 2B, one-way ANOVA with multiple comparison testing (Tukey) was performed. Multiplicity adjusted p-values with 95% confidence interval was applied. For the invasion assays in Figure 4, one-way ANOVA with multiple comparison testing (Tukey) was performed. Multiplicity adjusted p-values with 95% confidence interval was applied. The adjusted p-values comparing vehicle control without vs. with platelets and compound

In another assay the test system is HCT116. In words: Efficacy screening assay. The conditions noted are these: HCT116, colon. As for the experimental part:
as §1, §2, §3, §4

Another assay concerns PC3. In words: Efficacy screening assay. The conditions noted are these: Homo sapiens, PC-3, PC3, prostate, 72 h. On the procedure: as §1, §2, §3, §4
In a further assay the test system is PBMC. The experiment in a line: Efficacy screening assay. The conditions noted are these: Non-cancer, healthy donors, 72 h. As for the experimental part: C. Western blots for acetylated α-Tubulin, total α-Tubulin, p21 and GAPDH (loading control).
Cells were treated with vehicle control (0.1 % DMSO), 1 µM or 3 µM resminostat for 24 hours. Grouped blots were composed from cropped parts of individual blots for each antibody. Original blots with exposures and indicated cropped areas can be found in the supplementary information.
D. Cell line screen determining the EC50s of resminostat in 74 cell lines representing 14 different ca ncer indications. In addition, peripheral blood mononuclear cells (PBMCs) from healthy donors were tested. Each dot represents an EC50. […]
labelled fluorogenic peptide substrates: fluorogenic peptide from p53 residues 379-382 (RHKK(Ac)AMC) for HDAC1, 2, 3, 6, 10, 11; fluorogenic HDAC Class IIa Substrate (Trifluoro acetyl Lysine, Ac-LGK(TFA)-AMC) for HDAC 4, 5, 7, 9; and fluorogenic peptide from p53 residues 379-382 (RHK(Ac)K(Ac)AMC) for HDAC8. […] In a second step, the deacetylated products were digested by the addition of developer for 1 h at 30°C to produce the fluorescent signal proportional to the amount of deacetylated substrates and the fluorescence was measured using an Envision plate reader at 355 nm (excitation) and 460 nm (emission). A kinetic measurement was performed for ~1 h with 5 min intervals and d ata from the final time point were analysed. […]

Setting [2] is: log of EC50, negative, read-out: log(EC50) (converted).

Like-named read-outs stand apart in the source and are kept apart here.

In general, EC50 refers to the concentration at which the effect is half-maximal. In the case of `CN(C)Cc1ccc(S(=O)(=O)n2ccc(/C=C/C(=O)NO)c2)cc1` [resminostat, Resminostat], in assay [1], the “growth factors released by platelets or secreted by HCC cells” value is reported as “not consistantly affected”. In addition, the EC50 is 2630 nM with CASKI (Homo sapiens, Ca-Ski, log of EC50, negative, read-out: log(EC50) (converted)); 2630 nM in the assay on CASKI (Homo sapiens, Ca-Ski, read-out: EC50); 2630 nM in the assay with CASKI (read-out: EC50); 790 nM with HCT116 (72 h, read-out: EC50); 794 nM with HCT116 (Homo sapiens, HCT-116, 72 h, log of EC50, negative, read-out: log(EC50) (converted)); 792 nM with HCT116 (Homo sapiens, HCT-116, 72 h, read-out: EC50). For the same molecule, the EC50 in the assay with PC3 (setting [2]) is 1700 nM; in the assay on PC3 (read-out: EC50), 1690 nM; in the assay with PBMC (setting [2]), 8710 nM; in the assay on PBMC (read-out: EC50), 8680 nM.
